In the supplement of paper PMC10307832:

Columns and labels:
Experiment in all cases: relative viability (nuclei count vs DMSO), 5 days (fraction); higher = more cells survive
[1] = compound: Cc1ccc(F)c(NC(=O)Nc2ccc(-c3cccc4[nH]nc(N)c34)cc2)c1 [Linifanib] + C[C@@H](Oc1cc(-c2cnn(C3CCNCC3)c2)cnc1N)c1c(Cl)ccc(F)c1Cl [Crizotinib] (partner 1 µM)
Outline: (§1)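 Values are medians from duplicate plates. Each reflects relative viability, defined as the nuclei count of treated wells over that of vehicle wells. Lung cancer cell lines in 1536-well plates were pin-tool dosed one day after seeding with one drug alone or with a fixed anchor-drug dose plus five library-drug doses (not always all listed) in √10 steps, then fixed, stained and imaged at 4× after 5 days.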

[2] = compound: Cc1ccc(F)c(NC(=O)Nc2ccc(-c3cccc4[nH]nc(N)c34)cc2)c1 [Linifanib] + NC(=O)Nc1cc(-c2cccc(F)c2)sc1C(=O)N[C@H]1CCCNC1 [AZD7762] (partner 0.2 µM)
Outline: as §1

[3] = compound: Cc1ccc(F)c(NC(=O)Nc2ccc(-c3cccc4[nH]nc(N)c34)cc2)c1 [Linifanib] + Nc1nc2[nH]cc(CCc3ccc(C(=O)N[C@@H](CCC(=O)O)C(=O)O)cc3)c2c(=O)[nH]1 [Pemetrexed] (partner 0.2 µM)
Outline: as §1

[4] = compound: Cc1ccc(F)c(NC(=O)Nc2ccc(-c3cccc4[nH]nc(N)c34)cc2)c1 [Linifanib] + CCNC(=O)c1noc(-c2cc(C(C)C)c(O)cc2O)c1-c1ccc(CN2CCOCC2)cc1 [Luminespib] (partner 0.01 µM)
Outline: as §1

[5] = compound: Cc1ccc(F)c(NC(=O)Nc2ccc(-c3cccc4[nH]nc(N)c34)cc2)c1 [Linifanib] + O=C(CCCCCCC(=O)Nc1ccccc1)NO [Vorinostat] (partner 1 µM)
Outline: as §1

[6] = compound: Cc1ccc(F)c(NC(=O)Nc2ccc(-c3cccc4[nH]nc(N)c34)cc2)c1 [Linifanib] + CC1(C)CCC(c2ccc(Cl)cc2)=C(CN2CCN(c3ccc(C(=O)NS(=O)(=O)c4ccc(N[C@H](CCN5CCOCC5)CSc5ccccc5)c(S(=O)(=O)C(F)(F)F)c4)cc3)CC2)C1 [Navitoclax] (partner 0.5 µM)
Outline: as §1

Row | Cell Line | relative viability ([1]; first compound 0.03162 µM) | relative viability ([1]; first compound 0.1 µM) | relative viability ([1]; first compound 0.3162 µM) | relative viability ([2]; first compound 0.03162 µM) | relative viability ([2]; first compound 0.1 µM) | relative viability ([2]; first compound 0.3162 µM) | relative viability ([3]; first compound 0.03162 µM) | relative viability ([3]; first compound 0.1 µM) | relative viability ([3]; first compound 0.3162 µM) | relative viability ([4]; first compound 0.03162 µM) | relative viability ([4]; first compound 0.1 µM) | relative viability ([4]; first compound 0.3162 µM) | relative viability ([5]; first compound 0.03162 µM) | relative viability ([5]; first compound 0.1 µM) | relative viability ([5]; first compound 0.3162 µM) | relative viability ([6]; first compound 0.03162 µM) | relative viability ([6]; first compound 0.1 µM) | relative viability ([6]; first compound 0.3162 µM)
1 | NCI-H2087 | 0.602 | 1.03 | 0.655 | 1.33 | 1.45 | 1.32 | 0.661 | 0.726 | 0.529 | 0.175 | 0.193 | 0.171 | 0.854 | 0.695 | 0.598 | 0.959 | 1.08 | 0.95
2 | HARA | 1.09 | 1.18 | 0.975 | 0.402 | 0.445 | 0.387 | 0.258 | 0.261 | 0.306 | 1.12 | 0.651 | 0.707 | 0.598 | 0.479 | 0.579 | 1.16 | 1.12 | 1.05
3 | COR-L 105 | 0.796 | 0.941 | 0.797 |  |  |  | 1.12 | 1.02 | 1.07 | 0.807 | 0.889 | 0.556 | 0.86 | 0.809 | 0.796 | 0.808 | 0.938 | 0.796
4 | NCI-H1944 | 1.1 | 1.12 | 0.997 | 0.43 | 0.65 | 0.479 | 0.678 | 0.705 | 0.675 | 0.67 | 0.727 | 0.733 | 0.73 | 0.599 | 0.657 | 1.05 | 1.05 | 0.98
5 | LOU-NH91 | 0.74 | 0.767 | 0.769 | 0.752 | 0.816 | 0.739 | 0.416 | 0.372 | 0.364 | 0.394 | 0.324 | 0.319 | 0.969 | 0.975 | 0.943 | 0.656 | 0.753 | 0.594
6 | EMC-BAC-2 | 0.837 | 0.791 | 0.733 | 1.18 | 1.21 | 1.09 | 0.456 | 0.448 | 0.472 | 1.2 | 1.19 | 1.14 | 0.47 | 0.465 | 0.426 | 1.19 | 1.17 | 1.15
7 | BEN | 0.897 | 0.924 | 0.791 | 0.693 | 0.78 | 0.764 | 0.716 | 0.866 | 0.853 | 0.276 | 0.49 | 0.233 | 0.622 | 0.558 | 0.667 | 0.069 | 0.203 | 0.0675
8 | EKVX | 0.939 | 1.01 | 0.875 | 0.78 | 0.873 | 0.808 | 0.388 | 0.413 | 0.399 | 0.838 | 0.962 | 0.854 | 0.731 | 0.774 | 0.75 | 0.973 | 1.15 | 0.868
9 | NCI-H1666 | 0.971 | 0.989 | 0.966 | 0.941 | 0.854 | 0.833 | 0.943 | 0.876 | 0.892 | 1.03 | 1.04 | 0.999 | 0.996 | 1.01 | 0.97 | 0.982 | 0.948 | 1.17
10 | UMC-11 | 0.657 | 0.604 | 0.598 |  |  |  | 0.763 | 0.772 | 0.787 | 0.958 | 1.1 | 1.08 | 0.334 | 0.315 | 0.354 | 0.304 | 0.41 | 0.366
11 | SK-MES-1 | 1.01 | 1.03 | 0.81 |  |  |  | 1 | 0.964 | 0.962 | 0.79 | 0.769 | 0.639 | 1.13 | 1.05 | 1.05 | 1.18 | 1.25 | 1.04
12 | HCC-827 | 0.957 | 0.957 | 0.884 | 0.204 | 0.231 | 0.275 | 0.21 | 0.265 | 0.235 | 0.549 | 0.669 | 0.622 | 0.792 | 0.814 | 0.802 | 1.02 | 1.02 | 1
13 | LK-2 | 0.216 | 0.195 | 0.219 | 0.618 | 0.504 | 0.376 | 0.278 | 0.318 | 0.272 | 0.189 | 0.201 | 0.232 | 0.286 | 0.529 | 0.283 | 0.791 | 1.03 | 0.704
14 | ABC-1 | 1.28 | 1.27 | 0.996 | 0.869 |  | 0.767 |  |  |  | 0.497 | 0.558 | 0.783 | 1.19 | 1.31 | 0.906 |  |  | 
15 | NCI-H2085 | 0.863 | 1.03 | 0.818 | 1.08 | 0.943 | 0.974 | 0.907 | 0.942 | 0.917 | 0.4 | 0.481 | 0.384 | 0.854 | 0.832 | 0.792 | 1.04 | 1.12 | 1.11
16 | NCI-H1792 | 0.941 | 1.06 | 0.984 | 0.789 | 0.757 | 0.588 | 1.03 | 1 | 0.724 | 0.331 | 0.353 | 0.464 |  |  |  | 0.692 | 0.621 | 0.639
17 | HCC-44 | 0.839 | 0.831 | 0.733 | 1.09 | 0.914 | 1.04 | 0.624 | 0.552 | 0.613 | 0.903 | 0.954 | 1.05 | 1.22 | 1.04 | 1.14 | 1.05 | 0.956 | 0.942
18 | NCI-H1650 | 0.955 | 1.17 | 0.864 |  |  |  | 0.364 | 0.346 | 0.348 | 0.2 | 0.188 | 0.205 | 0.528 | 0.602 | 0.655 | 0.998 | 1.35 | 1.21
